Experimental data from PubChem BioAssay (NCI).
Several values for one entry are separate records, joined by “and”; a condition that tells them apart may be missing. Equal entries are not always repeated.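 Exposure lasted 48 hours, with cells grown in 96-well plates and compounds tested at five concentrations. The concentration for 50% growth inhibition is given as GI50. The concentration for full growth arrest is given as TGI.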

Legend:
Experiment in all cases: NCI anticancer screen, dose series, 48 h
HCC-2998 colon = test system: HCC-2998 colon
OVCAR-3 ovarian = test system: OVCAR-3 ovarian
NCI-H522 lung = test system: NCI-H522 lung
SK-OV-3 ovarian = test system: SK-OV-3 ovarian
OVCAR-4 ovarian = test system: OVCAR-4 ovarian
EKVX NSCLC = test system: EKVX NSCLC
SNB-75 CNS = test system: SNB-75 CNS
CCRF-CEM leukemia = test system: CCRF-CEM leukemia
HOP-92 NSCLC = test system: HOP-92 NSCLC
HCT-15 colon = test system: HCT-15 colon

| SMILES | GI50 (HCC-2998 colon) | TGI (HCC-2998 colon) [µM] | GI50 (OVCAR-3 ovarian) | TGI (OVCAR-3 ovarian) [µM] | GI50 (NCI-H522 lung) | TGI (NCI-H522 lung) | GI50 (SK-OV-3 ovarian) [µM] | TGI (SK-OV-3 ovarian) [µM] | GI50 (OVCAR-4 ovarian) [µM] | TGI (OVCAR-4 ovarian) [µM] | GI50 (EKVX NSCLC) [µM] | TGI (EKVX NSCLC) [µM] | GI50 (SNB-75 CNS) | TGI (SNB-75 CNS) [µM] | GI50 (CCRF-CEM leukemia) [µM] | TGI (CCRF-CEM leukemia) [µM] | GI50 (HOP-92 NSCLC) [µM] | TGI (HOP-92 NSCLC) [µM] | GI50 (HCT-15 colon) | TGI (HCT-15 colon) [µM] |
| --- | --- | --- | --- | --- | --- | --- | --- | --- | --- | --- | --- | --- | --- | --- | --- | --- | --- | --- | --- | --- |
| COc1ccc2c(c1)C(=O)c1c-2n(CCCCl)c(=O)c2cc(N)ccc12 | > 100 µM | > 100 | > 100 µM | > 100 | > 84.4 µM | > 100 µM | > 100 | > 100 | > 96.7 | > 100 | > 100 | > 100 | > 51.7 µM | > 85.7 | > 44.5 | > 59.4 | 21.2 | > 100 | > 95.7 µM | > 100 |
| Cc1ccc(NC(=O)CCC(=O)C2Cc3ccccc3C2=O)cc1C (stereo unspecified) | – | > 100 | – | > 100 | – | > 100 µM | – | > 100 | – | > 100 | – | > 100 | – | > 100 | – | > 100 | – | > 100 | – | > 100 |
| CCOC(=O)CCSC1=CC(=O)c2nc3ccccc3c3ccnc1c23 | 19.2 µM | 40.2 | 12.6 µM | 37 | 17.4 µM | 43 µM | 29.3 | 93.4 | 15.2 | 31.7 | 29.4 | 76.4 | 39 µM | > 100 | 3.44 | > 100 | 25.8 | 62.6 | 24.8 µM | 92.9 |
| CCS(=O)(=O)N1CCN(c2ccc(Nc3ncc(C(N)=O)c(NC4CC4)n3)cc2)CC1 | 23.8 µM | > 100 | 5.73 µM | 31.4 | 14.1 µM | 44.1 µM | 7.93 | 26.3 | 12.1 | > 100 | 63 | > 100 | 2.46 µM | 9.53 | 0.749 | 10.9 | 4.9 | > 100 | 2.64 µM | 27.1 |
| CCOC(=O)c1cc2c(n1Cc1cc(OC)cc(OC)c1)-c1oncc1CC2 | 0.411 µM | > 100 | 0.0389 µM | 0.197 | 0.0404 µM | > 91.5 µM | 0.309 | > 100 | 1.06 | > 100 | 0.32 | > 100 | 0.111 µM | > 100 | 0.215 | > 100 | 45.2 | > 100 | 0.13 µM | > 100 |
| CC(C)(C)OC(=O)N1Cc2cc3ccccc3nc2C1CO (stereo unspecified) | > 100 µM | > 100 | > 100 µM | > 100 | > 100 µM | > 100 µM | > 100 | > 100 | > 100 | > 100 | > 100 | > 100 | > 100 µM | > 100 | > 100 | > 100 | 57.8 | > 100 | > 100 µM | > 100 |
| NC(Cc1c[nH]c2cccc(F)c12)C(=O)O (stereo unspecified) | 73.2 µM and 694 µM | 2400 | 39.6 µM and 237 µM | 967 | 27.7 µM and 176 µM | 74.5 µM and 729 µM | 518 | > 4500 | – | > 4500 | 778 | > 4500 | 77.2 µM and 726 µM | 2790 | – | > 4500 | 4110 | > 4500 | 61.6 µM and 266 µM | 2870 |
| Nc1no[n+]([O-])c1-c1nnc2c(n1)-c1ccccc1C2=O | 13 µM | 26.8 | 0.569 µM | 3.83 | 2.02 µM | 5.87 µM | 16.2 | 51.5 | 1.42 | 2.74 | 2.29 | 5.86 | 17.4 µM | 34.5 | 3.22 | 9.37 | 2.21 | 6.63 | 1.83 µM | 3.91 |
| O=C(O)c1[nH]c2c([N+](=O)[O-])cc([N+](=O)[O-])cc2c1C(=O)O | – | > 100 | – | > 100 | – | > 100 µM | – | > 100 | – | > 100 | – | > 100 | – | > 100 | – | > 100 | – | > 100 | – | > 100 |
| CCOC(=O)CCn1cnc(N)n1 | – | > 100 | – | > 100 | – | > 100 µM | – | > 100 | – | > 100 | – | > 100 | – | > 100 | – | > 100 | – | > 100 | – | > 100 |
| C=C1C(C(=O)O)C1C(=O)O (stereo unspecified) | – | > 100 | – | – | – | > 100 µM | – | > 100 | – | > 100 | – | > 100 | – | > 100 | – | > 100 | – | > 100 | – | > 100 |
| O=C(OCc1ccccc1)n1cccc1 | – | > 100 | – | > 100 | – | > 100 µM | – | > 100 | – | > 100 | – | > 100 | – | > 100 | – | > 100 | – | > 100 | – | – |
